Measured values: publication PMC11251039, “Harnessing cholesterol uptake of malaria parasites for therapeutic applications” (EMBO Molecular Medicine, 2024)
Values joined by “and” are separate entries in the source; they are usually repeats but may differ in a detail not shown here. Equal values may be shown once. Read-outs that look alike come from different tables or passages of the source.

How the values were obtained:
[1] = test system: P. falciparum CAM3.II ring stages (0–3 h post invasion); assay: Plasmodium falciparum ring stage survival assay, resistant strain; type: cell-based; conditions: for Ring stage survival, individual data points (Figure 4C): CAM3.11, replicate experiments
Procedure: (§1) Following tight synchronisation using sorbitol and Percoll® floatation, ring stage CAM3.II and CAM3.IIREV parasites (0–3 h post invasion) at 1% parasitaemia and 2% haematocrit were incubated with 700 nM of compounds or solvent-only controls for exactly 6 h, before removing the drug, thoroughly washing in RPMI with HEPES, and returning to culture conditions for a further 66 h. Some cells were treated with 700 nM artesunate for 72 h as a no-growth control. DNA replication (indicating growth) was measured at the specified time using SYBR Safe DNA Stain. Microscope slide smears of each condition were stained with 10% v/v Giemsa and examined under a light microscope (×1000 magnification); with ‘viable’ (morphologically normal) and ‘non-viable’ (morphologically aberrant; vacuolated or pyknotic) parasites distinguished according to standard protocol (Witkowski et al, [2013]). Images were captured using a Leica ICC50 camera, with a resolution of 76 nm per pixel, and cropped from larger images using Fiji ImageJ.
(§2) Appendix Fraser/Curtis et al.
(§3) Cells were detached from a flask using 0.25% Trypsin with 0.2 g/L EDTA (Sigma T4049) and washed with culture media containing no phenol red. Cells were incubated with a serial dilution of each compound, or media/DMSO alone. The protein synthesis inhibitor cycloheximide (Sigma 01810) at 10 µg/mL was used as a positive control to determine background absorbance. 5,000 cells were seeded in each well. After 96 hours, 0.45 mg/mL methylthiazolyldiphenyl-tetrazolium bromide (MTT; Sigma M2128) was added and incubated for a further two hours, before mixing 1.1:1 with 10% w/v sodium dodecyl sulfate (SDS) to solubilise crystals and freezing the plate at -18 °C to stop the assay. Plates were defrosted at room temperature and absorbance was read at 570 nm in an Infinite M1000 pro plate reader […]
(§4) Plasmodium falciparum Ring Stage Survival Assay
(§5) Ring stage survival assays were conducted according to standard protocols with some modifications (27, 28). CAM3.11 and CAM3.11REV parasites were sorbitol synchronised twice, 12 hours apart, and then incubated for a further 30 hours until the majority of the parasites were mature schizonts (with clearly separated nuclei). Pelleted RBCs were incubated at 37 °C with heparinised RPMI for 15 minutes, and then centrifuged over 75% Percoll® in PBS for 15 minutes at 1,000 g. Mature schizonts were collected, washed with warm RPMI, and cultured for exactly three hours with fresh uRBCs and culture media. After 3 hours, the cultures were sorbitol synchronised and incubated in duplicate with 700 nM of artesunate, PAYb076a, GGA5, HJB8a53, a DMSO solvent-only control or media alone for exactly six hours, before removing the drug, washing in RPMI, and returning to culture conditions. Samples of each cell suspension were transferred to a -18 °C freezer at the start of the assay (time = 0) or treated for the entire 72 hours with 700 nM artesunate to determine background fluorescence under no-growth conditions. After a further 66 hours of incubation (totalling 72 hours), cells were […]
(§6) resuspended, and a sample from each well was transferred to a fresh plate and frozen at -18 °C.
(§7) Microscope slide smears were made using the remaining cells and stained with 10% v/v Giemsa. Plates were thawed and SYBR Safe DNA Gel Stain (final concentration 1/10,000) diluted in lysis buffer (as above) was added for DNA detection at 490 nm excitation / 520 nm emission on a FLUOstar Optima fluorescence plate reader. Parasite proliferation and viability were also assessed using Giemsa-stained smears examined under a light microscope (1,000× magnification); with ‘viable’ and ‘non-viable’ (vacuolated or pyknotic) parasites distinguished according to standard protocol. Images were captured using a Leica ICC50 camera, with a resolution of 76 nm per pixel.
(§8) Growth inhibition data were normalised by subtracting background fluorescence, […]

[2] = test system: P. falciparum CAM3.IIREV ring stages (0–3 h post invasion); assay: Plasmodium falciparum ring stage survival assay, susceptible revertant strain; type: cell-based; conditions: for Parasite morphology in Giemsa-stained smears: 700 nM, 6 h treatment, 66 h further growth, CAM3.IIREV susceptible; for Ring stage survival, individual data points (Figure 4C): CAM3.11REV, replicate experiments
Procedure: as §1, §2, §3, §4, §5, §6, §7, §8

[3] = test system: asexual P. falciparum CAM3.II (Resistant); assay: P. falciparum asexual growth inhibition assay, resistant strain; type: cell-based; conditions: Plasmodium falciparum, 72 h, read-out: IC50, P. falciparum asexual growth inhibition
Procedure: (§9) P. falciparum asexual parasite assays commenced with ring-stage parasites at 1% parasitaemia and 1% haematocrit. 200 nM chloroquine (Sigma C6628) or artesunate (Sigma A3731) was used as a no-growth control. DNA replication (indicating growth) was measured at the specified time using SYBR Safe DNA Gel Stain (Invitrogen 33102) and a fluorescence microplate reader (Smilkstein et al, [2004]; Spry et al, [2013]).
as §2
(§10) Growth and Viability Inhibition Assays:
(§11) Plasmodium falciparum Growth Inhibition Assays:
(§12) P. falciparum parasites were maintained under routine culture conditions in red blood cells and RPMI 1640-Hepes with Glutamax, supplemented with 10 mM D-glucose, 480 μM hypoxanthine, 20 μg/mL gentamicin, 0.375% (w/v) AlbuMAXTM II (Thermo Fisher 11021029), and 2.5% v/v heat-inactivated human serum (17). Cultures were maintained at 37 °C […]
(§13) Growth inhibition was investigated according to methods described by Smilkstein et al. (19) with modifications by Spry et al. (20). […] 200 nM chloroquine (Sigma C6628) or artesunate (Sigma A3731) was used as a positive control to determine background fluorescence. The parasitaemia of a culture containing predominantly ring stage parasites was counted by Giemsa smear. […] Fluorescence was detected at 490 nm excitation/ 520 nm emission on a FLUOstar Optima fluorescence plate reader (BMG Labtech).

[4] = test system: asexual P. falciparum CAM3.IIREV (Susceptible); assay: P. falciparum asexual growth inhibition assay, revertant strain; type: cell-based; conditions: Plasmodium falciparum, 72 h, read-out: IC50, P. falciparum asexual growth inhibition
Procedure: as §9, §2, §10, §11, §12, §13

[5] = test system: asexual P. falciparum 3D7 wild-type parasites; assay: P. falciparum asexual growth inhibition assay (SYBR Safe DNA replication); type: cell-based, Plasmodium falciparum; parameters: Figure 5B dose-response source data (growth, replicate values): unit not given here; conditions: for IC50: 72 h, read-out: IC50, P. falciparum asexual growth inhibition; for Figure 5B dose-response source data (growth, replicate values): individual replicates
Procedure: as §9, with “[2013]). […]” for “[2013]).”
as §10, §11, §12
wildtype parasites except for the ring stage survival assay, as specified. Cultures were synchronised with 5% w/v D-sorbitol (18).
Growth inhibition was investigated according to methods described by Smilkstein et al. (19) with modifications by Spry et al. (20). Compounds or solvent controls (DMSO, ethanol, or ethyl acetate) were serially diluted 2-fold across flat-bottom 96-well plates. Culture media without compound was used as a negative control. 200 nM chloroquine (Sigma C6628) or artesunate (Sigma A3731) was used as a positive control to determine background fluorescence. The parasitaemia of a culture containing predominantly ring stage parasites was counted by Giemsa smear. The parasitaemia was adjusted to 1% by addition of fresh uRBCs and added to the plate at a final haematocrit of 1%, with 200 µL per well. The plates were incubated at 37 °C under humid microaerophilic conditions. After 24, 48, or 72 hours, the plates were transferred to a -18 °C freezer to stop the assay and lyse cells. Plates were thawed and lysate was mixed 1:1 with SYBR Safe DNA Gel Stain (Invitrogen 33102) (final concentration 1/10,000) diluted in lysis buffer (20 mM TRIS, 5 mM EDTA, 0.008% w/v Saponin, 0.08% w/v Triton-X 100, pH 7.5). Fluorescence was detected at 490 nm excitation/ 520 nm emission on a FLUOstar Optima fluorescence plate reader (BMG Labtech).

[6] = test system: human embryonic kidney cells (HEK293); assay: Human embryonic kidney cell viability assay (MTT); type: cell-based; conditions: 96 h, HEK293; read-out: IC50, human embryonic kidney cell inhibition (viability)
Procedure: HEK293 cell viability assays commenced with 5000 cells per well. 10 µg/mL cycloheximide was used as a no-growth control. Metabolic capacity (indicating viability) was measured in an absorbance microplate reader after incubation with 0.45 mg/mL methylthiazolyldiphenyl-tetrazolium bromide (MTT; Sigma M2128) for 2 h followed by crystal solubilisation in SDS. […]
Human Embryonic Kidney Cell Viability Assays:
Human Embryonic Kidney Cell (HEK293) culture:
The HEK293 cell line was maintained under routine culture conditions in DMEM containing 3.7 g/L NaHCO3 supplemented with 10% FBS, 200 μM glutamine, 100 units/mL penicillin, and 100 μg/mL streptomycin at 37 °C in a humidified 5% CO2 incubator.
as §3, with “assay.” for “assay. Plates were defrosted at room temperature and absorbance was read at 570 nm in an Infinite M1000 pro plate reader”

[7] = 700 nM, 6 h treatment, 66 h further growth, CAM3.II resistant

SMILES: CC(C)OC(=O)CCC(=O)OC1OC2OC3(C)CCC4C(C)CCC(C1C)C24OO3 (stereo not shown) [ART-link]
- Parasite morphology in Giemsa-stained smears [1, 7]: a combination of morphologically normal parasites (green arrows) and morphologically aberrant pyknotic or vacuolated forms
- Ring stage survival, individual data points (Figure 4C) ([1]; listed as GGA5): 38.82 and -2.964 and -8.71 and 33.42
- Parasite morphology in Giemsa-stained smears [2]: only morphologically aberrant parasites were present
- Ring stage survival, individual data points (Figure 4C) ([2]; listed as GGA5): -11.62 and -13.91 and -17.49 and -9.785

SMILES: CC1CCC2C(C)C(OC(=O)CCC(=O)OC3CCC4C5CC=C6CC(O)CCC6(C)C5CCC34C)OC3OC4(C)CCC1C32OO4 (stereo not shown) [C-17-ART]
- IC50 [3]: 10.5 nM
- IC50 [4]: 11 nM
- Parasite morphology in Giemsa-stained smears [1, 7]: only aberrant, non-viable parasites were visible
- Ring stage survival, growth [1, 7]: complete growth inhibition
- Ring stage survival, individual data points (Figure 4C) ([1]; listed as PAYb076a): 5.574 and -1.717 and 1.804 and -19.52
- Parasite morphology in Giemsa-stained smears [2]: only morphologically aberrant parasites were present
- Ring stage survival, individual data points (Figure 4C) ([2]; listed as PAYb076a): -3.583 and -11.02 and -24.87 and -14.11
- IC50 ([5]; Plasmodium falciparum, 3D7, 72 h, 3D7 (Susceptible)): 10.6 nM

SMILES: CC(C)(C)OOC(C)(C)C [Di-tert-butyl peroxide, di-tert-butyl peroxide, reference compound]
- IC50 [6]: > 100000 nM
- IC50 [5]: > 25000 nM
- Figure 5B dose-response source data (growth, replicate values) ([5]; Concentration 0.039063 uM): 85.18 and 102.4 and 102.7
- Figure 5B dose-response source data (growth, replicate values) ([5]; Concentration 0.078125 uM): 74.12 and 92.74 and 101.2
- Figure 5B dose-response source data (growth, replicate values) ([5]; Concentration 0.15625 uM): 95.05 and 90.78 and 92.5 and 91.43 and 92.81 and 96.62 and 92.25 and 92.33 and 93.69
- Figure 5B dose-response source data (growth, replicate values) ([5]; Concentration 0.1953125 uM): 104.7 and 100.3 and 94.44
- Figure 5B dose-response source data (growth, replicate values) ([5]; Concentration 0.3125 uM): 87.88 and 89.77 and 89.55 and 85.58 and 96.69 and 99.28 and 97.57 and 87.06 and 96.72
- Figure 5B dose-response source data (growth, replicate values) ([5]; Concentration 0.390625 uM): 99.53 and 101.7 and 93.86
- Figure 5B dose-response source data (growth, replicate values) ([5]; Concentration 0.625 uM): 89.02 and 90.9 and 80.19 and 84.44 and 92.83 and 101.4 and 93.27 and 93.75 and 89.82
- Figure 5B dose-response source data (growth, replicate values) ([5]; Concentration 0.78125 uM): 99.16 and 101.8 and 97.31
- Figure 5B dose-response source data (growth, replicate values) ([5]; Concentration 1.25 uM): 89.1 and 88.53 and 87.02 and 94.06 and 87.75 and 98.34 and 95.66 and 89.13 and 92.05
- Figure 5B dose-response source data (growth, replicate values) ([5]; Concentration 1.5625 uM): 96.44 and 101 and 94.23
- Figure 5B dose-response source data (growth, replicate values) ([5]; Concentration 2.5 uM): 90.99 and 88.19 and 94.1 and 84.35 and 90.32 and 96.8 and 92.38 and 90.3 and 90.14
- Figure 5B dose-response source data (growth, replicate values) ([5]; Concentration 3.125 uM): 98.75 and 99.8 and 93.33
- Figure 5B dose-response source data (growth, replicate values) ([5]; Concentration 5 uM): 88.2 and 86.72 and 93.06 and 89.82 and 70.14 and 95.75 and 93.09 and 90.02 and 87.03
- Figure 5B dose-response source data (growth, replicate values) ([5]; Concentration 6.25 uM): 99.66 and 102.1 and 96.08
- Figure 5B dose-response source data (growth, replicate values) ([5]; Concentration 10 uM): 83.27 and 83.85 and 83.43 and 96.65 and 93.69 and 94.13 and 91.37 and 89.09 and 89.4
- Figure 5B dose-response source data (growth, replicate values) ([5]; Concentration 12.5 uM): 105.9 and 89.05 and 98.44
- Figure 5B dose-response source data (growth, replicate values) ([5]; Concentration 25 uM): 103.6 and 101.6 and 94.82
